Structures can show the parent of a compound that is named as a salt.

Consider ten molecules from patent US5965560A, “Substituted piperazines and piperidines as central nervous system agents” (priority 1997, dated 1999).

The target in series [1] is human D3 receptor (DA D3) (Homo sapiens, UniProt P35462). In words: inhibition of [^3 H]spiperone binding to the human D3 receptor. To be noted: human D3, [^3 H]spiperone.
The target in series [2] is human D2 receptor (DA D2) (Homo sapiens, UniProt P14416). In words: inhibition of [^3 H]spiperone binding to the human D2 receptor. To be noted: human D2, [^3 H]spiperone.
Series [3] deals with T1, human D4 dopamine receptor (DA D4) (Homo sapiens, UniProt P21917).
T1 sequence (P21917 1-419): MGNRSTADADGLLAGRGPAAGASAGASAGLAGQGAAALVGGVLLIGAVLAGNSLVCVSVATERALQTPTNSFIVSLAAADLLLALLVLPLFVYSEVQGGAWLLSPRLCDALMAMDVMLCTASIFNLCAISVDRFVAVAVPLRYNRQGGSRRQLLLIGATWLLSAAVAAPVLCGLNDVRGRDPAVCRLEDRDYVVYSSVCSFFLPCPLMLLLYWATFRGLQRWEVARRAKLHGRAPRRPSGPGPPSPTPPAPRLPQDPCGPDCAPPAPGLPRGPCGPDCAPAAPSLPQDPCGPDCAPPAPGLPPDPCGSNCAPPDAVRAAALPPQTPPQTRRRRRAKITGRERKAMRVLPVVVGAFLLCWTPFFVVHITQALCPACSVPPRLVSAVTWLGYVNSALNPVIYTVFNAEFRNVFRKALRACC
The experiment in a line: inhibition of radioligand binding to the human D4 dopamine receptor. On the procedure: Compounds were tested for their ability to bind to dopamine receptors as measured by their inhibition of [^3 H]spiperone binding to the human D2, D3 receptors in a receptor assay described by MacKenzie R. G., VanLeeuwen D., Pugsley T. A., et al., "Characterization of the human dopamine D3 receptor expressed in transfected cell lines." Eur. J. Pharmacol.-Mol. Pharmacol., 1994;266:79-85; for the human D4 dopamine receptor in a receptor assay by Pugsley T. A., Davis M. D., Akunne H. C., et al., "CI-1007, a dopamine partial agonist and potential antipsychotic agent. I. Neurochemical Effects." J. Pharmacol. Exp. Ther., 1995;274:898-911; and for ability to block the action of an agonist in a [^3 H]thymidine incorporation assay described by Lajiness N. E., Chio C. L., Huff R. M., "D2 dopamine receptor stimulation of mitogenesis in transfected Chinese hamster ovary cells: relationship to dopamine stimulation of tyrosine phosphorylations." J. Pharmacol. Exp. Ther., 1993;267:1573-81. This test determines the agonist/antagonist character of a compound by measuring [^3 H]thymidine update in Chinese hamster ovary (CHO) pro-5 cells expressing the DA D4 receptor. Agonists, such as quinpirole, promote cell growth and subsequent [^3 H]thymidine incorporation, while antagonists block the action of agonists. […] The above test methods are incorporated herein by reference.

For series [4] the following is noted: clozapine, background section; cited from earlier work.
In a further series the test system is DA D4 receptor. To be noted: D4 versus D2; Van Tol et al., Nature 1991; cited from earlier work.

human D2 receptor (DA D2), sequence (P14416 whole entry): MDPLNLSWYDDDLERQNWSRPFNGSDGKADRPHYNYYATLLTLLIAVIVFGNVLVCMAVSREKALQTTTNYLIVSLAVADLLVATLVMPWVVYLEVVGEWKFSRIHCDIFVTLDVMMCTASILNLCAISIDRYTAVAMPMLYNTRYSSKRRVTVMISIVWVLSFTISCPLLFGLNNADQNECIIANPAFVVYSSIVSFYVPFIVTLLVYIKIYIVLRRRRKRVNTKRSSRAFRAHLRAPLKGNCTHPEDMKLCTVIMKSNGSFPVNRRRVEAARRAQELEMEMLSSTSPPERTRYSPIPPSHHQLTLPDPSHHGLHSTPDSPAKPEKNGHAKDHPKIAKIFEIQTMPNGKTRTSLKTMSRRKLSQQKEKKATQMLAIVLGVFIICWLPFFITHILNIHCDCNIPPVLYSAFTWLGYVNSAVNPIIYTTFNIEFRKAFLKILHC
human D3 receptor (DA D3), sequence (P35462 whole entry): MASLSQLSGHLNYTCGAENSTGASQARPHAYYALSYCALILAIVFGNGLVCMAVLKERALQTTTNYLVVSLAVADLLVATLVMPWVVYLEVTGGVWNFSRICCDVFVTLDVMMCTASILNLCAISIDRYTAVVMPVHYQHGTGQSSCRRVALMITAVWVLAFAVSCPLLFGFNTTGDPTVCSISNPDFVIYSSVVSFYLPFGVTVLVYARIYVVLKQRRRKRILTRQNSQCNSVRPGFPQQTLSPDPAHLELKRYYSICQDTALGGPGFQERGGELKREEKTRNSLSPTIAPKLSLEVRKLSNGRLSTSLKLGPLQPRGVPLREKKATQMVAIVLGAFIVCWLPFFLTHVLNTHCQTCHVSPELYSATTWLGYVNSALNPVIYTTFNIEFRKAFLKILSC

In the case of `COc1cc(CN2CCN(c3cccc(Cl)c3C)CC2)cc(OC)c1OC` [Example 19, 1-(3-Chloro-2-methylphenyl)-4-(3,4,5-trimethoxybenzyl)-piperazine, monohydrochloride], the results for the inhibition constant Ki in series [1], in series [2] and in series [3] were 2120 nM, 1050 nM and 6.1 nM, respectively.
As for `COc1cc(CN2CCN(c3ccc(C)c(Cl)c3)CC2)cc(OC)c1OC` [Example 20, 1-(3-Chloro-4-methylphenyl)-4-(3,4,5-trimethoxybenzyl)-piperazine, monohydrochloride], the Ki came out at 2030 nM in series [1], 3290 nM in series [2] and 4.5 nM in series [3].
Take `COc1cc(CN2CCN(c3cc(Cl)ccc3C)CC2)cc(OC)c1OC` [Example 21, 1-(5-Chloro-2-methylphenyl)-4-(3,4,5-trimethoxybenzyl)-piperazine, monohydrochloride]: the values for the inhibitory constant (Ki) in series [1], in series [2] and in series [3] were 3510 nM, 1560 nM and 6.5 nM, respectively.
In the same order, the values of `COc1cc(CN2CCN(c3cccc(C)c3)CC2)cc(OC)c1OC` [Example 7, 1-m-Tolyl-4-(3,4,5-trimethoxybenzyl)piperazine, monohydrochloride] are 2770 nM, 1460 nM and 8.6 nM.
For the molecule `COc1cc(CN2CCN(c3ccc(C)cc3)CC2)cc(OC)c1OC` [Example 8, 1-p-Tolyl-4-(3,4,5-trimethoxybenzyl)piperazine, monohydrochloride], the values for the inhibition constant (Ki) in series [1], in series [2] and in series [3] were 6820 nM, 1410 nM and 7.5 nM, respectively.
With `COc1ccc(CN2CCN(c3cccc(C)c3Cl)CC2)cc1OC` [Example 29, 1-(2-Chloro-3-methylphenyl)-4-(3,4-dimethoxybenzyl)-piperazine, monohydrochloride], the inhibition constant (Ki) was determined as 1210 nM in series [1], 2340 nM in series [2] and 5 nM in series [3].
Consider `CN1CCN(C2=Nc3cc(Cl)ccc3Nc3ccccc32)CC1` [clozapine], for which, in series [4], the “extrapyramidal side effects and tardive dyskinesia” value is “lack of extrapyramidal side effects and tardive dyskinesia”. In addition, in the series on DA D4 receptor, the “affinity for the DA D4 receptor relative to D2” value is recorded as “tenfold higher affinity”.
Turning to `COc1ccc(CN2CCN(c3cccc(C)c3Cl)CC2)c(OC)c1` [Example 27, 1-(2-Chloro-3-methylphenyl)-4-(2,4-dimethoxybenzyl)-piperazine, monohydrochloride], the Ki in series [1] is 409 nM; in series [2], 762 nM; in series [3], 4.4 nM.
For `COc1cccc(CN2CCN(c3cccc(C)c3Cl)CC2)c1OC` [Example 26, 1-(2-Chloro-3-methylphenyl)-4-(2,3-dimethoxybenzyl)-piperazine, monohydrochloride], the Ki in series [1] is 2650 nM; in series [2], 2900 nM; in series [3], 12.7 nM.
Taken in the same sequence, the figures for `COc1ccc(OC)c(CN2CCN(c3cccc(C)c3Cl)CC2)c1` [Example 28, 1-(2-Chloro-3-methylphenyl)-4-(2,5-dimethoxybenzyl)-piperazine, monohydrochloride] were 730 nM, 2080 nM and 11.3 nM.

As usually defined, the Ki is a dissociation constant, usually derived from enzyme kinetics or from competition with a known ligand. Read a high Ki as weaker binding.
